Structures can show the parent of a compound that is named as a salt. Where two headings read alike, the source gives them in different places.
Experiments:
NA re-uptake = molecular target: T1, NA re-uptake (Rattus norvegicus, UniProt Q63380); assay: Inhibition of NA re-uptake in rat brain synaptosomes (P2 fraction, hypothalamus); format: biochemical; details: for inhibition at 10 µM: 10 μmol/l
T1 construct: synaptosomes are freshly isolated from rat brain areas; from tissue; host or cells: rat brain synaptosomes (P2 fraction), hypothalamus
T1 sequence (Q63380 1-617): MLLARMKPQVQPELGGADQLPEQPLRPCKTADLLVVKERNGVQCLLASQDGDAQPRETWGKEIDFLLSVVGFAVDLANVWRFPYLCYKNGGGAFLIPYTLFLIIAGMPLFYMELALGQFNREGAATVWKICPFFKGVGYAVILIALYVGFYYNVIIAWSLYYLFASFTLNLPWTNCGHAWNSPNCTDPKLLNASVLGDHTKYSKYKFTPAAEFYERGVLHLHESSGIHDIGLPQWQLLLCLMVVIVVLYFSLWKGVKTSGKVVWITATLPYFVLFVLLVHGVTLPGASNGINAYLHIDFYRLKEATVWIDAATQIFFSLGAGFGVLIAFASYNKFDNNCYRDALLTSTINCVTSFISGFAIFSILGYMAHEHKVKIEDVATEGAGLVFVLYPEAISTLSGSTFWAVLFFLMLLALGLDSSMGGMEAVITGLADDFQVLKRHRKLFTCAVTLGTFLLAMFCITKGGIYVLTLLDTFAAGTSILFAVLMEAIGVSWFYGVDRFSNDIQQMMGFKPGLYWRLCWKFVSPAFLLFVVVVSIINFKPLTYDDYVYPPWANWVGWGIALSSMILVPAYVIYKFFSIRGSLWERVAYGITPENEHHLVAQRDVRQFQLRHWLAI
Excerpt: (§1) a) Investigations of the Inhibition of the Re-uptake of 5-HT and NA
(§2) In order to be able to carry out these in vitro studies, synaptosomes are freshly isolated from rat brain areas. […] These vesicular particles are isolated from the hypothalamus for the NA re-uptake and from the medulla +pons region of male rat brains for the 5-HT re-uptake.
(§3) The IC50 values were obtained with the aid of the “Figure P” computer program (version 6.0, Biosoft, Cambridge, England). […] The “Ligand” computer program (version 4, Biosoft, England) was used to obtain KD values.

5-HT re-uptake = molecular target: T2, 5-HT re-uptake (Rattus norvegicus, UniProt P31652); assay: Inhibition of 5-HT re-uptake in rat brain synaptosomes (P2 fraction, medulla + pons); format: biochemical; details: for inhibition at 10 µM: 10 μmol/l
T2 construct: synaptosomes are freshly isolated from rat brain areas; from tissue; host or cells: rat brain synaptosomes (P2 fraction), medulla + pons region, male rats
T2 sequence (P31652 whole entry): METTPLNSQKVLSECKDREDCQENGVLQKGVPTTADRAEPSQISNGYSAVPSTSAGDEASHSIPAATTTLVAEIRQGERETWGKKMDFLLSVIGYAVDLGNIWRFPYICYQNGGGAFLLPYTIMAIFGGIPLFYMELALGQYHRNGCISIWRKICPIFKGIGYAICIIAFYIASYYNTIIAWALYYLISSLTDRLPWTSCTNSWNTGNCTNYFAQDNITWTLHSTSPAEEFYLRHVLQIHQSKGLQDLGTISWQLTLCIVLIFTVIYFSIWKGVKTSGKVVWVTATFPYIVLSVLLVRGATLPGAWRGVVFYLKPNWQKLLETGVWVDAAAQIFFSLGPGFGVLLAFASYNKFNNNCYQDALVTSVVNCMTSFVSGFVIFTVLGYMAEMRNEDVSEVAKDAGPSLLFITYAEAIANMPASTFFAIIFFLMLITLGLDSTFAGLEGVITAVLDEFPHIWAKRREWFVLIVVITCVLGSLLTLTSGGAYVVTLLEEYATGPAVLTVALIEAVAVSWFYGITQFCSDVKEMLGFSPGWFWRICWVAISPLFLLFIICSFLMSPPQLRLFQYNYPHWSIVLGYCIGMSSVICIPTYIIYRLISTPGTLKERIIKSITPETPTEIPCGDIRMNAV
Excerpt: as §1, §2, §3

mice = assay: Formalin test in mice (analgesic action, chronic pain component); format: in vivo; details: for ED50: Mus musculus, iv, read-out: Inhibition of the nociceptive behaviour versus control, ED50 value
Method: b) Investigations of the Analgesic Actions in the Formalin Test in Mice
The formalin test (Dubuisson, D. and Dennis, S. G., 1977, Pain, 4, 161-174) represents a model of acute and chronic pain. The chronic pain component was evaluated in the investigations described here.
A biphase nociceptive reaction which is recorded by observing three behaviour patterns which can be clearly differentiated from one another is induced in freely mobile test animals by a single formalin injection into the dorsal side of a hind paw.
Formalin is administered subcutaneously into the dorsal side of the right hind paw of each animal in a volume of 20 μl and a concentration of 1%.
The specific changes in behaviour which differ from the normal behaviour (score 0), such as raising (score 1) and shaking the paw (score 2) and biting and licking reactions (score 3), are observed and recorded continuously at component intervals of 3 min for up to 60 min after the administration of formalin. The changes in behaviour are weighted in different ways (score 0-3) and a pain rate (PR) is calculated using the following formula: PR=[(T0×0)+(T1×1)+(T2×2)+(T3×3)]/180.
The group size is 10 animals (n=10).
On the basis of the PR calculations, the action of the substance was determined as the change from a control in percent. The ED50 was determined by means of regression analysis.

Q: `CN(C)C[C@@H]1CCCC[C@@H]1c1cccnc1` (relative stereo) [Example 6, cis-Dimethyl-(2-pyridin-3-yl-cyclohexylmethyl)amine hydrochloride] was tested. Which inhibition at 10 µM (NA re-uptake) did it give?
A: 25%

Q: And the inhibition at 10 µM (5-HT re-uptake)?
A: 94%

Q: Which results are given for `CN(C)C[C@@H]1CCCC[C@H]1c1cccnc1.Cl` (relative stereo) [Example 7, trans-Dimethyl-(2-pyridin-3-yl-cyclohexylmethyl)amine hydrochloride]?
A: inhibition at 10 µM (NA re-uptake): 22%; ED50 (mice): 2.55 mg/kg; inhibition at 10 µM (5-HT re-uptake): 95%

Q: `CN(C)C[C@@H]1CCCCC[C@@H]1c1cccnc1` (relative stereo) [Example 26, cis-Dimethyl-(2-pyridin-3-yl-cycloheptylmethyl)-amine hydrochloride] was tested. Which inhibition at 10 µM (NA re-uptake) did it give?
A: 28%

Q: And the inhibition at 10 µM (5-HT re-uptake)?
A: 82%

Q: How did the inhibition at 10 µM (NA re-uptake) turn out when `CN(C)C[C@@H]1CCCCC[C@H]1c1cccnc1` (relative stereo) [Example 27, trans-Dimethyl-(2-pyridin-3-yl-cycloheptylmethyl)-amine hydrochloride] was run?
A: 54%

Q: And the inhibition at 10 µM (5-HT re-uptake)?
A: 88%

Q: With `CN(C)C[C@@H]1CSCC[C@@]1(O)c1cccnc1.Cl` (relative stereo) [Example 50, cis-3-Dimethylaminomethyl-4-pyridin-3-yl-tetrahydrothiopyran-4-ol hydrochloride] as the compound, how does the “NA re-uptake inhibition (10 μmol/l)” value (NA re-uptake) read?
A: 29%

Q: And the “Inhibition of the nociceptive behaviour versus control; % inhibition” value (shortened to “Inhibition … % inhibition”) (mice; 21.5 mg/kg i.v., mice)?
A: 37.0%

Q: And the “5-HT re-uptake inhibition (10 μmol/l)” value (5-HT re-uptake)?
A: 54%

Q: What does the source list for `COc1cncc([C@@H]2CCCCCC[C@H]2CN(C)C)c1` (relative stereo) [Example 70, trans-[2-(5-Methoxy-pyridin-3-yl)-cyclooctylmethyl]-dimethyl-amine and the corresponding hydrochloride]?
A: NA re-uptake inhibition (10 μmol/l) (NA re-uptake): 52%; 5-HT re-uptake inhibition (10 μmol/l) (5-HT re-uptake): 89%

Q: For `COc1cncc([C@H]2CCCCCC[C@H]2CN(C)C)c1` (relative stereo) [Example 72, cis-[2-(5-Methoxy-pyridin-3-yl)-cyclooctylmethyl] -dimethyl-amine hydrochloride], which inhibition at 10 µM (NA re-uptake) is on record?
A: 53%

Q: What about the inhibition at 10 µM (5-HT re-uptake) of the same compound?
A: 60%

Q: What does the source list for `CNCC1=C(c2cccnc2)CCCC1.Cl` [Example 2, Methyl-(2-pyridin-3-yl-cyclohex-1-enylmethyl)amine hydrochloride]?
A: inhibition at 10 µM (NA re-uptake): 15%; Inhibition of the nociceptive behaviour versus control; % inhibition (mice; 21.5 mg/kg i.v., mice): 88%; inhibition at 10 µM (5-HT re-uptake): 69%

Q: How did the “Inhibition … % inhibition” value (mice; 10 mg/kg i.v., mice) turn out when `CN(CC1=C(c2cccnc2)CCCC1)Cc1ccccc1.Cl` [Example 10, Benzylmethyl-(2-pyridin-3-yl-cyclohex-1-enylmethyl)amine hydrochloride] was run?
A: 66.3%

Q: How did the inhibition at 10 µM (NA re-uptake) turn out when `CN(C)CC1CCCCCC1(Cl)c1ccc(Cl)nc1` (stereo not drawn) [Example 13, [2-Chloro-2-(6-chloro-pyridin-3-yl)-cycloheptylmethyl]-dimethyl-amine hydrochloride] was run?
A: 75%

Q: What about the inhibition at 10 µM (5-HT re-uptake) of the same compound?
A: 38%

Q: Which results are given for `CN(C)CC1CCCCC1(Cl)c1cccnc1` (stereo not drawn) [Example 14, (2-Chloro-2-pyridin-3-yl-cyclohexylmethyl)-dimethyl-amine hydrochloride]?
A: inhibition at 10 µM (NA re-uptake): 27%; inhibition at 10 µM (5-HT re-uptake): 73%

Q: With `CN(C)CC1CCCCC1(Cl)c1ccc(Cl)nc1` (stereo not drawn) [Example 15, [2-Chloro-2-(6-chloro-pyridin-3-yl)-cyclohexylmethyl]-dimethyl-amine hydrochloride] as the compound, how does the inhibition at 10 µM (NA re-uptake) read?
A: 53%

Q: And the inhibition at 10 µM (5-HT re-uptake)?
A: 51%

Q: For `CN(C)CC1=C(c2cccnc2)CCCCC1.Cl` [Example 23, Dimethyl-(2-pyridin-3-yl-cyclohept-1-enylmethyl)-amine hydrochloride], which inhibition at 10 µM (NA re-uptake) is on record?
A: 50%

Q: What about the ED50 (mice) of the same compound?
A: 2.44 mg/kg

Q: What about the inhibition at 10 µM (5-HT re-uptake) of the same compound?
A: 86%

Q: What does the source list for `CN(C)CC1CCCCC=C1c1cccnc1.Cl` (stereo not drawn) [Example 24, Dimethyl-(2-pyridin-3-yl-cyclohept-2-enylmethyl)-amine hydrochloride]?
A: inhibition at 10 µM (NA re-uptake): 19%; ED50 (mice): 5.4 mg/kg; inhibition at 10 µM (5-HT re-uptake): 67%

Q: Which results are given for `CN(C)CC1=C(c2cccnc2)CCC1.Cl` [Example 28, Dimethyl-(2-pyridin-3-yl-cyclopent-1-enylmethyl)-amine hydrochloride]?
A: inhibition at 10 µM (NA re-uptake): 29%; Inhibition of the nociceptive behaviour versus control; % inhibition (mice; 10 mg/kg i.v., mice): 92.6%; inhibition at 10 µM (5-HT re-uptake): 83%

Q: What does the source list for `CN(C)CC1CCC=C1c1cccnc1` (stereo not drawn) [Example 29, Dimethyl-(2-pyridin-3-yl-cyclopent-2-enylmethyl)-amine hydrochloride]?
A: inhibition at 10 µM (NA re-uptake): 64%; inhibition at 10 µM (5-HT re-uptake): 69%

Q: Which results are given for `CN(C)CC1CCCC1c1cccnc1.Cl` (stereo not drawn) [Example 31, Dimethyl-(2-pyridin-3-yl-cyclopentylmethyl)-amine hydrochloride]?
A: inhibition at 10 µM (NA re-uptake): 8%; Inhibition of the nociceptive behaviour versus control; % inhibition (mice; 10 mg/kg i.v., mice): 89.7%; inhibition at 10 µM (5-HT re-uptake): 70%

Q: How did the inhibition at 10 µM (NA re-uptake) turn out when `CN(C)CC1=C(c2cccnc2)CCCCCC1.Cl` [Example 32, Dimethyl-(2-pyridin-3-yl-cyclooct-1-enylmethyl)-amine hydrochloride] was run?
A: 55%

Q: And the ED50 (mice; mice, formalin test)?
A: 2.77 mg/kg

Q: And the inhibition at 10 µM (5-HT re-uptake)?
A: 78%

Q: How did the inhibition at 10 µM (NA re-uptake) turn out when `CN(C)CC1CCCCCC=C1c1cccnc1` (stereo not drawn) [Example 33, Dimethyl-(2-pyridin-3-yl-cyclooct-2-enylmethyl)-amine hydrochloride] was run?
A: 50%

Q: What about the inhibition at 10 µM (5-HT re-uptake) of the same compound?
A: 74%

Q: Which results are given for `CN(C)CC1=C(c2ccncc2)CCCCC1` [Example 38, Dimethyl-(2-pyridin-4-yl-cyclohept-1-enylmethyl)-amine hydrochloride]?
A: inhibition at 10 µM (NA re-uptake): 73%; inhibition at 10 µM (5-HT re-uptake): 76%

Q: For `CN(C)CC1CCCCC=C1c1ccc(Cl)nc1` (stereo not drawn) [Example 48, [2-(6-chloro-pyridin-3-yl)-cyclohept-2-enylmethyl]-dimethyl-amine hydrochloride], which inhibition at 10 µM (NA re-uptake) is on record?
A: 82%

Q: What about the inhibition at 10 µM (5-HT re-uptake) of the same compound?
A: 81%

Q: How did the inhibition at 10 µM (NA re-uptake) turn out when `CN(C)CC1=C(c2ccc(Cl)nc2)CCCC1` [Example 49, [2-(6-Chloro-pyridin-3-yl)-cyclohex-1-enylmethyl]-dimethyl-amine hydrochloride] was run?
A: 67%

Q: What about the inhibition at 10 µM (5-HT re-uptake) of the same compound?
A: 55%

Q: How did the inhibition at 10 µM (NA re-uptake) turn out when `COc1cncc(C2=C(CN(C)C)CCCC2)c1` [Example 54, [2-(5-Methoxy-pyridin-3-yl)-cyclohex-1-enylmethyl]-dimethyl-amine hydrochloride] was run?
A: 17%

Q: And the inhibition at 10 µM (5-HT re-uptake)?
A: 85%

Q: How did the inhibition at 10 µM (NA re-uptake) turn out when `COc1cncc(C2=CCCCC2CN(C)C)c1` (stereo not drawn) [Example 55, [2-(5-Methoxy-pyridin-3-yl)-cyclohex-2-enylmethyl]-dimethyl-amine hydrochloride] was run?
A: 34%

Q: What about the inhibition at 10 µM (5-HT re-uptake) of the same compound?
A: 67%

Q: Which results are given for `COc1cncc(C2CCCCCC2CN(C)C)c1` (stereo not drawn) [Example 60, [2-(5-Methoxy-pyridin-3-yl)-cycloheptylmethyl] -dimethyl-amine hydrochloride]?
A: inhibition at 10 µM (NA re-uptake): 30%; inhibition at 10 µM (5-HT re-uptake): 75%

Q: Which inhibition at 10 µM (NA re-uptake) does the source give for `COc1cncc(C2CCCCC2CN(C)C)c1` (stereo not drawn) [Example 62, [2-(5-Methoxy-pyridin-3-yl)-cyclohexylmethyl] -dimethyl-amine hydrochloride] here?
A: 13%

Q: And the inhibition at 10 µM (5-HT re-uptake)?
A: 77%

Q: How did the inhibition at 10 µM (NA re-uptake) turn out when `CN(C)CC1=C(c2cncc(O)c2)CCCC1` [Example 64, 5-(2-Dimethylaminomethyl-cyclohex-1-enyl)-pyridin-3-ol hydrochloride] was run?
A: 6%

Q: And the inhibition at 10 µM (5-HT re-uptake)?
A: 68%

Q: `CCCN(CCC)CC1=C(c2cccnc2)CCCC1.Cl` [Example 65, Dipropyl-(2-pyridin-3-yl-cyclohex-1-enylmethyl)-amine hydrochloride] was tested. Which inhibition at 10 µM (NA re-uptake) did it give?
A: -8%

Q: And the “Inhibition … % inhibition” value (mice; 4.64 mg/kg i.v., mice)?
A: −39.4%

Q: What about the inhibition at 10 µM (5-HT re-uptake) of the same compound?
A: 54%

Q: `CN(C)CC1=C(c2ccc(Cl)nc2)CCCC1.Cl` [Example 68, [2-(6-Chloro-pyridin-3-yl)-cyclohex-1-enylmethyl]-dimethyl-amine hydrochloride] was tested. Which “NA re-uptake inhibition (10 μmol/l)” value (NA re-uptake; hydrochloride) did it give?
A: 62%

Q: What about the “5-HT re-uptake inhibition (10 μmol/l)” value (5-HT re-uptake; hydrochloride) of the same compound?
A: 67%

Q: How did the inhibition at 10 µM (NA re-uptake) turn out when `CN(C)CC1CCCCCC=C1c1ccc(Cl)nc1` (stereo not drawn) [Example 71, [2-(6-Chloro-pyridin-3-yl)-cyclooct-2-enylmethyl] -dimethyl-amine hydrochloride] was run?
A: 77%

Q: What about the inhibition at 10 µM (5-HT re-uptake) of the same compound?
A: 74%

Q: With `COc1cncc(C2=CCCCCCC2CN(C)C)c1` (stereo not drawn) [Example 73, [2-(5-Methoxy-pyridin-3-yl)-cyclooct-2-enylmethyl] -dimethyl-amine hydrochloride] as the compound, how does the inhibition at 10 µM (NA re-uptake) read?
A: 55%

Q: And the inhibition at 10 µM (5-HT re-uptake)?
A: 89%

Q: Which inhibition at 10 µM (NA re-uptake) does the source give for `COc1cncc(C2=C(CN(C)C)CCCCCC2)c1` [Example 74, [2-(5-Methoxy-pyridin-3-yl)-cyclooct-1-enylmethyl] -dimethyl-amine hydrochloride] here?
A: 56%

Q: And the inhibition at 10 µM (5-HT re-uptake)?
A: 72%

— patent US7384961B2, “Saturated and unsaturated heteroarylcycloalkylmethyl amines as anti-depressants” (priority 2002, dated 2008)
